Molecular target: T1, HIV-1 protease (Human immunodeficiency virus type 1 group M subtype B, UniProt P04585)
T1 construct: 2.6 nM of HIV-1 protease
Assay: Assay for inhibitory effect on HIV protease (residual enzyme activity, HPLC of substrate cleavage)
Assay type: biochemical
Conditions: for Ki / kinact: HIV-1 protease 2.6 nM; for Ki / kinact / kinact/KI: pH 5.5; for Ki: inhibition constant; for kinact: rate constant of covalent bond formation, read-out: kina (converted); for kinact/KI: second order rate constant, HIV-1 protease, read-out: kina /KI (converted)
Protocol: The inhibitory effect on HIV protease of the compounds of the present invention was determined by the following method.
To a buffer solution comprising 50 mM sodium acetate, pH 5.5, 1 mM dithiothreitol(DTT), 1 mM ethylenediaminetetraacetate (EDTA), 0.75M ammonium sulfate, 0.2M sodium chloride and 0.1% NP40(NONIDET P-40; Sigma Chemical Co., U.S.A.), were added various concentrations of a compound selected from Compound Nos. 1 to 92 to prepare a preincubation solution. Inhibition reaction was started with the addition of 2.6 nM of HIV-1 protease to the preincubation solution. Each 10 μl of the reaction solution was taken at a given time interval and added to 80 μl of assay solution containing 100 μM of reaction substrate in the same buffer solution as above to assay for the residual enzyme activity. In this context, an oligopeptide(KM =20 μM) consisting of 11 amino acids, i.e., Ser-Ile-Ala-Glu-(p-NO2)-Phe-Leu-Val-Arg-Ala-Lys-His, was used as a reaction substrate, which oligopeptide was to be cleaved in two by the breakage of amide bond between (P--NO2)-Phe and Leu upon the attack of HIV protease. The reaction rate was determined by subjecting the substrate before the reaction and the product after the reaction to HPLC separation and then measuring the relative amount of the product, using the strong absorbance of (p--NO2)-Phe at 280 nm. The amount of reduction in enzyme activity according to the elapsed time were measured and the natural logarithmic values(ln) of the measured amounts were plotted against time to obtain a linear graph and kobs was calculated from the slope of the linear graph.
The inhibition constant was calculated according to the following equation: [formula] wherein: kobs is a rate constant indicating the rate of reduction in enzyme activity according to the elapsed time under the presence of a given concentration of inhibitor,
kina is a rate constant indicating the rate of chemical reaction forming covalent bond between an enzyme and an inhibitor in Michaelis-Menten complex,
KI is an inhibition constant indicating the dissociation rate of Michaelis-Menten complex into an enzyme and an inhibitor, and
[I] means the inhibitor concentration.
The above equation is applicable to an experiment carried out under the condition in which the concentration of inhibitor is far higher than that of enzyme(Steady State Kinetic). […] The inhibition constants KI and kina and second order rate constant kina /KI were obtained by inputting the value of [E]/([E]+[EI]+[EI']) into KINSIM/FITSIM program. FIG. 1 exemplifies a result of the experiment determining the binding ratio of enzymes and inhibitors, which result was obtained by reacting the enzyme and the inhibitor in various concentration ratios for a sufficient time period(at least for 30 minutes), and then plotting the relative activity of the remaining enzyme against [conc. of inhibitor]/[conc. of enzyme].

Compound | Ki | kinact | kinact/KI | Km (oligopeptide substrate of 11 amino acids, read-out: KM of reaction substrate)
NC(=O)C[C@H](NC(=O)[C@H](Cc1ccccc1)NC(=O)OCc1ccccc1)C(=O)N[C@@H](Cc1ccccc1)[C@H]1O[C@H]1CCc1ccccc1 [compound 68, 2-L-[N-(N-benzyloxycarbonyl-L-phenylalanyl)-L-asparaginyl]amino-(3R,4S)-epoxy-1,6-diphenylhexane] | 4000 nM | 0.000667 s⁻¹ | 167 M⁻¹ s⁻¹ | 
O=C(O)CC[C@H](NC(=O)OCc1ccccc1)C(=O)NC[C@@H]1O[C@@H]1[C@H](Cc1ccccc1)NC(=O)[C@H](CCC(=O)O)NC(=O)OCc1ccccc1 [compound 74, 4S-1,4-bis[N-(N'-benzyloxycarbonyl-L-glutamic acidyl)amino]-5-phenyl-(2S,3R)-(Z)-epoxypentane] | > 10000 nM |  |  | 
C[C@H](NC(=O)OCc1ccccc1)C(=O)N[C@@H](CC(N)=O)C(=O)N[C@@H](Cc1ccccc1)[C@H]1O[C@H]1CCc1ccccc1 [compound 67, 2-L-[N-(N-benzyloxycarbonyl-L-alanyl)-L-asparaginyl]amino-(3R,4S)-epoxy-1,6-diphenylhexane] | 260 nM | 0.00117 s⁻¹ | 4500 M⁻¹ s⁻¹ | 
CC(C)(C)OC(=O)N[C@@H](Cc1ccccc1)[C@H]1O[C@H]1CCc1ccccc1 [compound 51, 2-L-(t-butoxycarbonyl)amino-(3R,4S)-epoxy-1,6-diphenylhexane] | 7000 nM | 0.000833 s⁻¹ | 118 M⁻¹ s⁻¹ | 
COC(=O)C(NC(=O)C(CCC(N)=O)NC(=O)C[C@@H]1O[C@@H]1[C@H](Cc1ccccc1)NC(=O)[C@H](CC(N)=O)NC(=O)COc1cccc2ccccc12)C(C)C (some centres unmarked) [compound 16] | 420 nM | 0.0025 s⁻¹ | 6000 M⁻¹ s⁻¹ | 
NC(=O)C[C@H](NC(=O)c1ccc2ccccc2[n+]1[O-])C(=O)N[C@@H](Cc1ccccc1)[C@H]1O[C@H]1CCc1ccccc1 [compound 64, 2-L-[N-(N-oxy)quinoline-2-yl-carbonyl-L-asparaginyl]amino-(3R,4S)-epoxy-1,6-diphenylhexane] | 3600 nM | 0.0015 s⁻¹ | 417 M⁻¹ s⁻¹ | 
CC(C)[C@H](NC(=O)N(C)Cc1ccccc1)C(=O)NC[C@@H]1O[C@@H]1[C@H](Cc1ccccc1)NC(=O)[C@@H](NC(=O)N(C)Cc1ccccc1)C(C)C [compound 81, 4S-1,4-bis[N-[(N'-benzylmethylamino)carbonyl-L-valinyl]amino]-5-phenyl-(2S,3R)-(Z)-epoxypentane] | > 10000 nM |  |  | 
CC(C)[C@H](NC(=O)OCc1ccncc1)C(=O)NC[C@@H]1O[C@@H]1[C@H](Cc1ccccc1)NC(=O)[C@@H](NC(=O)OCc1ccncc1)C(C)C [compound 79] | 3000 nM | 0.00167 s⁻¹ | 550 M⁻¹ s⁻¹ | 
NC(=O)C[C@H](NC(=O)COc1ccc(F)cc1F)C(=O)N[C@@H](Cc1ccccc1)[C@H]1O[C@H]1CCc1ccccc1 [compound 58, 2-L-[N-(2,4-difluoro)phenoxyacetyl-L-asparaginyl]amino-(3R,4S)-epoxy-1,6-diphenylhexane] | 3300 nM | 0.0005 s⁻¹ | 152 M⁻¹ s⁻¹ | 
NC(=O)C[C@H](NC(=O)c1ccc2ccccc2n1)C(=O)N[C@@H](Cc1ccccc1)[C@H]1O[C@H]1CNC(=O)[C@@H](NC=O)c1ccccc1 [compound 91] | 1200 nM | 0.005 s⁻¹ | 4170 M⁻¹ s⁻¹ | 
CNC(=O)[C@@H](NC(=O)C[C@@H]1O[C@@H]1[C@H](Cc1ccccc1)NC(=O)[C@H](CC(N)=O)NC(=O)c1ccc2ccccc2n1)C(C)C [compound 30] | 22 nM | 0.00333 s⁻¹ | 183000 M⁻¹ s⁻¹ | 
CC[C@H](C)[C@H](NC(=O)C[C@@H]1O[C@@H]1[C@H](Cc1ccccc1)NC(=O)[C@@H](NC(=O)OCc1ccccn1)C(C)C)C(=O)OC [compound 38, N-{N-L-[[N-(2-pyridylmethoxycarbonyl)-L-valinyl)-amino]-(4R,3S)-epoxy-6-phenyl-hexanoyl}-L-isoleucine methyl ester] | > 10000 nM |  |  | 
CC(C)[C@H](NC(=O)OCc1cccnc1)C(=O)NC[C@@H]1O[C@@H]1[C@H](Cc1ccccc1)NC(=O)[C@@H](NC(=O)OCc1cccnc1)C(C)C [compound 78] | 720 nM | 0.00167 s⁻¹ | 2330 M⁻¹ s⁻¹ | 
CC[C@H](C)[C@H](NC(=O)OCc1ccccc1)C(=O)N[C@@H](Cc1ccccc1)[C@H]1O[C@H]1CCc1ccccc1 [compound 54, 2-L-(N-benzyloxycarbonyl-L-isoleucinyl)amino-(3R,4S)-epoxy-1,6-diphenylhexane] | 1000 nM | 0.0075 s⁻¹ | 7500 M⁻¹ s⁻¹ | 
Ser-Ile-Ala-Glu-(p-NO2)-Phe-Leu-Val-Arg-Ala-Lys-His [reference compound] |  |  |  | 20 µM
NC(=O)C[C@H](NC(=O)c1ccc2ccccc2n1)C(=O)N[C@@H](Cc1ccccc1)[C@H]1O[C@H]1CNC(=O)[C@H](Cc1ccccc1)NC=O [compound 92] | 1400 nM | 0.00333 s⁻¹ | 2330 M⁻¹ s⁻¹ | 
NC(=O)CC[C@H](NC(=O)OCc1ccccc1)C(=O)N[C@@H](Cc1ccccc1)[C@H]1O[C@H]1CCc1ccccc1 [compound 55, 2-L-(N-benzyloxycarbonyl-L-glutaminyl)amino-(3R,4S)-epoxy-1,6-diphenylhexane] | 2200 nM | 0.00367 s⁻¹ | 1670 M⁻¹ s⁻¹ | 
CC(C)[C@H](NC=O)C(=O)NC[C@@H]1O[C@@H]1[C@H](Cc1ccccc1)NC(=O)[C@H](CC(N)=O)NC(=O)c1ccc2ccccc2n1 [compound 88] | 850 nM | 0.0367 s⁻¹ | 43300 M⁻¹ s⁻¹ | 
CC[C@H](C)[C@H](NC(=O)C[C@@H]1O[C@@H]1[C@H](Cc1ccccc1)NC(=O)[C@H](CC(N)=O)NC(=O)COc1ccccc1)C(=O)OC [compound 4] | 60 nM | 0.0015 s⁻¹ | 25000 M⁻¹ s⁻¹ | 
CC[C@H](C)[C@H](NC(=O)C[C@@H]1O[C@@H]1[C@H](Cc1ccccc1)NC(=O)[C@H](CC(N)=O)NC(=O)c1ccc2ccccc2n1)C(=O)N1CCOCC1 [compound 29] | > 10000 nM |  |  | 
CC[C@H](C)[C@H](NC(=O)C[C@@H]1O[C@@H]1[C@H](CC1CCCCC1)NC(=O)[C@H](CC(N)=O)NC(=O)c1ccc2ccccc2n1)C(=O)OC [compound 5] | 92 nM | 0.00333 s⁻¹ | 36700 M⁻¹ s⁻¹ | 
NC(=O)C[C@H](NC(=O)COc1ccccc1)C(=O)N[C@@H](Cc1ccccc1)[C@H]1O[C@H]1CCc1ccccc1 [compound 57, 2-L-(N-phenoxyacetyl-L-asparaginyl)amino-(3R,4S)-epoxy-1,6-diphenylhexane] | 12500 nM | 0.0015 s⁻¹ | 120 M⁻¹ s⁻¹ | 
CCC(C)[C@H](NC=O)C(=O)NC[C@@H]1O[C@@H]1[C@H](Cc1ccccc1)NC(=O)[C@H](CC(N)=O)NC(=O)c1ccc2ccccc2n1 (some centres unmarked) [compound 90] | 140 nM | 0.00667 s⁻¹ | 48300 M⁻¹ s⁻¹ | 
NC(=O)C[C@H](NC(=O)[C@H](Cc1ccccc1)NC(=O)CCN1CCOCC1)C(=O)N[C@@H](Cc1ccccc1)[C@H]1O[C@H]1CCc1ccccc1 [compound 66, 2-L-[N-(N-morpholinepropanecarbonyl-L-phenylalanyl)-L-asparaginyl]amino-(3R,4S)-epoxy-1,6-diphenylhexane] | 550 nM | 0.0128 s⁻¹ | 23300 M⁻¹ s⁻¹ | 
CC(C)C[C@H](NC(=O)[C@H](CC(N)=O)NC(=O)OCc1ccccc1)[C@H]1O[C@H]1CCc1ccccc1 [compound 56, 5-L-(N-benzyloxycarbonyl-L-asparaginyl)amino-(3S,4R)-epoxy-7-methyl-1-phenyloctane] | 44400 nM | 0.00483 s⁻¹ | 108 M⁻¹ s⁻¹ | 
CC(C)CC[C@@H]1O[C@@H]1[C@H](Cc1ccccc1)NC(=O)[C@H](CC(N)=O)NC(=O)OCc1ccccc1 [compound 69, 2-L-(N-benzyloxycarbonyl-L-asparagyl)amino-(3R,4S)-epoxy-7-methyl-1-phenyloctane] | 550 nM | 0.001 s⁻¹ | 1830 M⁻¹ s⁻¹ | 
CONC(=O)[C@@H](NC(=O)C[C@@H]1O[C@@H]1[C@H](Cc1ccccc1)NC(=O)[C@H](CC(N)=O)NC(=O)c1ccc2ccccc2n1)C(C)C [compound 34] | 15 nM | 0.00267 s⁻¹ | 183000 M⁻¹ s⁻¹ | 
